Laboratory results published in ChEMBL document CHEMBL1201862, “PubChem BioAssay data set” (2004).
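Where inhibition never reached the appropriate level, the endpoint shown equals the highest concentration tested. Otherwise, values were interpolated linearly from a five-concentration, 48-hour dose response in 96-well plates. Abbreviation: GI50, concentration required for 50% inhibition of growth.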 Active and inactive are the calls of the source. No stated cut-off is given here; in the data, active = GI50 up to about 1.1 µM and inactive = higher.

How the values were obtained:
Experiment in all cases: NCI tumour cell line growth inhibition, 48 h
EKVX = tested on: EKVX
HL-60 = tested on: HL-60
A549 = tested on: A549
SF-268 = tested on: SF-268
NCI-H23 = tested on: NCI-H23
RXF 393 = tested on: RXF 393
HCC 2998 = tested on: HCC 2998
SK-MEL-5 = tested on: SK-MEL-5
COLO 205 = tested on: COLO 205
HOP-62 = tested on: HOP-62
NCI-H460 = tested on: NCI-H460
SR = tested on: SR
RPMI-8226 = tested on: RPMI-8226
UACC-62 = tested on: UACC-62
A498 = tested on: A498
UO-31 = tested on: UO-31
MDA-MB-435 = tested on: MDA-MB-435
PC-3 = tested on: PC-3
KM12 = tested on: KM12
M14 = tested on: M14

Compound	GI50 (EKVX)	GI50 (HL-60)	GI50 (A549)	GI50 (SF-268)	GI50 (NCI-H23)	GI50 (RXF 393)	GI50 (HCC 2998)	GI50 (SK-MEL-5)	GI50 (COLO 205)	GI50 (HOP-62)	GI50 (NCI-H460)	GI50 (SR)	GI50 (RPMI-8226)	GI50 (UACC-62)	GI50 (A498)	GI50 (UO-31)	GI50 (MDA-MB-435)	GI50 (PC-3)	GI50 (KM12)	GI50 (M14)
COc1cc2c(c(O)c1C)C(=O)C(Cl)=CC2=O	16 µM (inactive)	0.933 µM (active)	22.1 µM (inactive)	17.8 µM (inactive)	10.2 µM (inactive)	6.31 µM (inactive)	22.3 µM (inactive)	8.69 µM (inactive)	2.16 µM (inactive)	43.2 µM (inactive)	24.9 µM (inactive)	0.662 µM (active)	6.35 µM (inactive)	7.23 µM (inactive)	19 µM (inactive)	10.4 µM (inactive)	7.46 µM (inactive)	15.2 µM (inactive)	19.5 µM (inactive)	6.47 µM (inactive)
C[S+]([O-])c1cc(=O)c2ccccc2s1 (stereo not given)	5.71 µM (inactive)	1.99 µM (inactive)	18.5 µM (inactive)	10.2 µM (inactive)	6.19 µM (inactive)	2.94 µM (inactive)	7.64 µM (inactive)	10.6 µM (inactive)	2.32 µM (inactive)	27 µM (inactive)	14.9 µM (inactive)	1.56 µM (inactive)	2.9 µM (inactive)	7.31 µM (inactive)	11.5 µM (inactive)	11.9 µM (inactive)	5.14 µM (inactive)	15.5 µM (inactive)	12.6 µM (inactive)	1.67 µM (inactive)
Cc1ccc2nc3sc(=O)sc3nc2c1 [CHINOMETHIONAT]	14.2 µM (inactive)	16.6 µM (inactive)	16.1 µM (inactive)	16.4 µM (inactive)	19.4 µM (inactive)	18.1 µM (inactive)	16.2 µM (inactive)	15.6 µM (inactive)	13.9 µM (inactive)	16.6 µM (inactive)	12.9 µM (inactive)	21.1 µM (inactive)	19.5 µM (inactive)	17.9 µM (inactive)	7.48 µM (inactive)	15.4 µM (inactive)	16.1 µM (inactive)	14.3 µM (inactive)	15.6 µM (inactive)	16.9 µM (inactive)
CC1=CCC[C@@](C)(O)[C@@H]2C[C@H]3C(CSc4ccccc4)C(=O)O[C@H]3[C@@H](O2)[C@H](C)CCC1 (stereo not given in full)	18.6 µM (inactive)	> 100 µM (inactive)	10.5 µM (inactive)	34 µM (inactive)	16.8 µM (inactive)	13.7 µM (inactive)	15.8 µM (inactive)	14.5 µM (inactive)	18.1 µM (inactive)	16.6 µM (inactive)	6.1 µM (inactive)	6.35 µM (inactive)	7.43 µM (inactive)	14.8 µM (inactive)	18 µM (inactive)	11.8 µM (inactive)	20.3 µM (inactive)	6.62 µM (inactive)	9.18 µM (inactive)	13.7 µM (inactive)
O=C(c1ccccc1)c1ccc(-n2c3ccccc3c3ccc4c(c32)C(=O)C=CC4=O)cc1	11 µM (inactive)	2.8 µM (inactive)	18.5 µM (inactive)	10.7 µM (inactive)	12.8 µM (inactive)	5.24 µM (inactive)	11.2 µM (inactive)	18.7 µM (inactive)	9.12 µM (inactive)	16.4 µM (inactive)	18.5 µM (inactive)	3.15 µM (inactive)	6.17 µM (inactive)	13.1 µM (inactive)	12.2 µM (inactive)	2.74 µM (inactive)	6.01 µM (inactive)	11.7 µM (inactive)	17.5 µM (inactive)	9.2 µM (inactive)
C=CC[C@H](O)[C@@](NC(=O)OCc1ccccc1)(Sc1ccc(C)cc1)C(F)(F)F	30.6 µM (inactive)	11.5 µM (inactive)	27.7 µM (inactive)	18.1 µM (inactive)	24.5 µM (inactive)	23.3 µM (inactive)	> 100 µM (inactive)	26.9 µM (inactive)	20.3 µM (inactive)	28.9 µM (inactive)	30.7 µM (inactive)	20.1 µM (inactive)	23.4 µM (inactive)	30.7 µM (inactive)	65.3 µM (inactive)	17.9 µM (inactive)	24.1 µM (inactive)	29.8 µM (inactive)	25.8 µM (inactive)	20.7 µM (inactive)
CC(C)OC(=O)NNc1cccc(Cl)c1	> 100 µM (inactive)	33.3 µM (inactive)	> 100 µM (inactive)	> 100 µM (inactive)	> 100 µM (inactive)	> 100 µM (inactive)	> 100 µM (inactive)	> 100 µM (inactive)	> 100 µM (inactive)	> 100 µM (inactive)	> 100 µM (inactive)	> 100 µM (inactive)	66.1 µM (inactive)	38.4 µM (inactive)	> 100 µM (inactive)	> 100 µM (inactive)	> 100 µM (inactive)	> 100 µM (inactive)	> 100 µM (inactive)	> 100 µM (inactive)
